Where only a bound is given, the exact number is not on record here.

The subject of one experiment is MDA-MB-468. As to conditions: 72 h. The procedure, abridged:
(§1)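 The plates used were 384-well plates holding compound at 5 concentrations in 10-fold steps across a compound-specific 10,000-fold range, into which breast cancer cell lines were seeded in 20 µl suspension. Following 72 h incubation, CellTox Green fluorescence was read at 485/520 nm, and CellTiter-Glo luminescence was read after 10 min at room temperature. Normalisation on each plate used 0.1 % DMSO and a positive kill control. Dose-response curves gave the EC50, which was censored at the top concentration.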

A further experiment concerns CAL-120. As to conditions: 72 h. The procedure, abridged: as §1
A further experiment deals with HCC1937. Nature of the experiment: drug sensitivity score (DSS), CellTox Green (DSS (AUC-based score)); higher = stronger drug effect (viability inhibition or cytotoxicity); extreme values may be limits of the assay. As to conditions: incubation time: 72 h. An outline of the steps:
(§2)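 Normalisation on every plate relied on 0.1 % DMSO and a positive kill control. The plates, 384-well format, held compound at 5 concentrations 10-fold apart across a compound-specific 10,000-fold range, and breast cancer cell lines in 20 µl suspension were incubated on them for 72 h before CellTox Green and then CellTiter-Glo readings. The drug sensitivity score derives from the area under the fitted dose-response curve.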

Another experiment relates to MDA-MB-231. The experiment is described as above. Particulars: incubation time: 72 h. An outline of the steps: as §2
A further experiment concerns Hs578T. Described as above. Particulars: incubation time: 72 h. An outline of the steps:
as §2

The next experiment has as its system CAL-148. In words: normalised viability (% of control), CellTiter-Blue; higher = more viable cells (about 100 = DMSO control). As to conditions: incubation time: 72 h. The procedure: (§3)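 DSRT, CellTiter-Blue viability, 72 h incubation. Signal is normalised to DMSO and benzethonium chloride controls. Value is the normalised response at dose 9.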
A general note: Alamar Blue is a resazurin reagent that responds to reducing activity.

The test system of a further experiment is CAL-51. The experiment is described as above. As to conditions: incubation time: 72 h. On the procedure: as §3

For `COc1cccc2c1C(=O)c1c(O)c3c(c(O)c1C2=O)C[C@@](O)(C(=O)CO)C[C@@H]3O[C@H]1C[C@H](N)[C@H](O)[C@H](C)O1` [Doxorubicin], the “EC50, CellTiter-Glo” value in the experiment with MDA-MB-468 was determined as 139 nM; with CAL-120 it was 872 nM. For the same compound, the drug sensitivity score with HCC1937, in the experiment on MDA-MB-231 and in the experiment on Hs578T was 0 throughout.

Take `N#CC[C@H](C1CCCC1)n1cc(-c2ncnc3[nH]ccc23)cn1` [Ruxolitinib]: the results for the “EC50, CellTiter-Glo” value in the experiment with MDA-MB-468 and with CAL-120 were greater than 10000 nM and 1670 nM, respectively. Besides, the drug sensitivity score in the experiment on MDA-MB-231 and in the experiment with Hs578T was 0 throughout.

Take `CN1CC[C@H](c2c(O)cc(O)c3c(=O)cc(-c4ccccc4Cl)oc23)[C@H](O)C1` [Alvocidib]: the “EC50, CellTiter-Glo” value in the experiment on MDA-MB-468 was 261 nM; with CAL-120 it was 167 nM. For the same compound, the values for the drug sensitivity score in the experiment on HCC1937, with MDA-MB-231 and in the experiment with Hs578T were 0, 16.5 and 8.33, respectively.

Regarding `Nc1ccn([C@@H]2O[C@H](CO)[C@@H](O)[C@@H]2O)c(=O)n1` [Cytarabine], the “EC50, CellTiter-Glo” value is 618 nM in the experiment on MDA-MB-468 and greater than 10000 nM with CAL-120. Moreover, the drug sensitivity score in the experiment with HCC1937, in the experiment on MDA-MB-231 and with Hs578T was 0 each time.

Consider `CN1CC[C@H](c2c(O)cc(O)c3c(=O)cc(-c4ccccc4Cl)oc23)[C@H](O)C1` [Alvocidib] (10000 nM), for which the results for the normalised viability in the experiment on CAL-148 and in the experiment with CAL-51 were 17% and 5.62%, respectively.

With `OC[C@H]1O[C@@H](n2cnc3c2N=CNC[C@H]3O)C[C@@H]1O` [Pentostatin] (10000 nM), the normalised viability with CAL-148 turned out to be 124%; in the experiment on CAL-51, 88.3%.

On to `Nc1ccn([C@@H]2O[C@H](CO)[C@@H](O)[C@@H]2O)c(=O)n1` [Cytarabine] (10000 nM), for which the normalised viability with CAL-148 amounted to 29.1%; with CAL-51, 14.7%.

In the case of `COc1cccc2cc(-c3nc([C@H]4CC[C@H](C(=O)O)CC4)n4ncnc(N)c34)[nH]c12` [OSI-027], the figures for the “EC50, CellTiter-Glo” value in the experiment on MDA-MB-468 and in the experiment on CAL-120 were 4990 nM and 3850 nM, respectively. The drug sensitivity score in the experiment with HCC1937, in the experiment with MDA-MB-231 and in the experiment with Hs578T was 0 each time.

In the case of `CC(=O)O[C@]1(C(C)=O)CC[C@H]2[C@@H]3C=C(C)C4=CC(=O)CC[C@]4(C)[C@H]3CC[C@@]21C` [Megestrol acetate], the drug sensitivity score is 0 with HCC1937, 0 in the experiment with MDA-MB-231 and 1.68 with Hs578T.

Consider `Cc1c2oc3c(C)ccc(C(=O)N[C@@H]4C(=O)N[C@H](C(C)C)C(=O)N5CCC[C@H]5C(=O)N(C)CC(=O)N(C)[C@@H](C(C)C)C(=O)O[C@@H]4C)c3nc-2c(C(=O)N[C@@H]2C(=O)N[C@H](C(C)C)C(=O)N3CCC[C@H]3C(=O)N(C)CC(=O)N(C)[C@@H](C(C)C)C(=O)O[C@@H]2C)c(N)c1=O` [Dactinomycin] (1000 nM), for which the normalised viability with CAL-148 came to 12%; in the experiment with CAL-51, 4.61%.

For `COc1cc(Nc2ncc3c(n2)-c2ccc(Cl)cc2C(c2c(F)cccc2OC)=NC3)ccc1C(=O)O` [Alisertib], the entries for the “EC50, CellTiter-Glo” value with MDA-MB-468 and in the experiment with CAL-120 were 26.9 nM and 338 nM, respectively. In addition, the drug sensitivity score in the experiment on HCC1937 amounted to 1.76; with MDA-MB-231 it was 8.87; with Hs578T, 0.

Regarding `Nc1nc(Cl)nc2c1ncn2[C@H]1C[C@H](O)[C@@H](CO)O1` [Cladribine] (1000 nM), the normalised viability in the experiment with CAL-148 was determined as 52.4%; in the experiment on CAL-51, 69.8%.

Take `Cc1ccc(F)c(NC(=O)Nc2ccc(-c3cccc4[nH]nc(N)c34)cc2)c1` [Linifanib] (1000 nM): the normalised viability is 80.2% in the experiment on CAL-148 and 98.1% in the experiment on CAL-51.

Turning to `C=CCNC1=C2C[C@@H](C)C[C@H](OC)[C@H](O)[C@@H](C)/C=C(\C)[C@H](OC(N)=O)[C@@H](OC)/C=C\C=C(/C)C(=O)NC(=CC1=O)C2=O` [Tanespimycin] (10000 nM), the normalised viability with CAL-148 worked out at 9.8%; in the experiment with CAL-51, 4.68%.

In the case of `C=CC[C@@H]1/C=C(\C)C[C@H](C)C[C@H](OC)[C@H]2O[C@@](O)(C(=O)C(=O)N3CCCC[C@H]3C(=O)O[C@H](/C(C)=C/[C@@H]3CC[C@@H](O)[C@H](OC)C3)[C@H](C)[C@@H](O)CC1=O)[C@H](C)C[C@@H]2OC` [Tacrolimus], the drug sensitivity score with HCC1937 was 0; in the experiment with MDA-MB-231, 2.92; in the experiment with Hs578T, 0.

In the case of `CC[C@]1(O)C[C@@H]2CN(CCc3c([nH]c4ccccc34)[C@@](C(=O)OC)(c3cc4c(cc3OC)N(C)[C@H]3[C@@](O)(C(=O)OC)[C@H](OC(C)=O)[C@]5(CC)C=CCN6CC[C@]43[C@@H]65)C2)C1` [Vinblastine] (1000 nM), the figures for the normalised viability in the experiment on CAL-148 and in the experiment on CAL-51 were 22.7% and 11.4%, respectively.

Regarding `OC[C@H]1O[C@@H](n2cnc3c2N=CNC[C@H]3O)C[C@@H]1O` [Pentostatin], the drug sensitivity score in the experiment with HCC1937, with MDA-MB-231 and in the experiment on Hs578T was 0 throughout.

Consider `Clc1ccc(C(c2ccccc2Cl)C(Cl)Cl)cc1` (centres undefined) [Mitotane] (10000 nM), for which the normalised viability was 110% in the experiment with CAL-148 and 109% in the experiment with CAL-51.

For the compound `CS(=O)(=O)c1ccc(C(=O)Nc2ccc(Cl)c(-c3ccccn3)c2)c(Cl)c1` [Vismodegib], the drug sensitivity score with HCC1937 was found to be 0; in the experiment with MDA-MB-231, 0; with Hs578T it was 1.09.

Source of the values: the supplement of paper PMC4862054.
